From patent US20110183842A1, “Triazole and Imidazole Compounds, Use Thereof and Agents Containing Them” (BASF SE, priority 2008, published 2011) come the findings set out here.

This assay relates to Phakopsora pachyrhizi. The experiment in a line: Curative activity against soybean rust caused by Phakopsora pachyrhizi (greenhouse, soybean seedlings). Type of assay: in vivo. Particulars: 300 ppm active compound, sprayed to runoff two days after inoculation of soybean seedlings, rated after a further 10 days; untreated plants 90% infected. On the procedure:
The active compounds were prepared separately or together as a stock solution with 25 mg of active compound, which was made up to 10 ml with a mixture of acetone and/or DMSO and the emulsifier Uniperol® EL (wetting agent with emulsifying and dispersant action based on ethoxylated alkylphenols) in the volume ratio solvent/emulsifier of from 99 to 1. Subsequently, it was made up to 100 ml with water. This stock solution was diluted with the described solvent/emulsifier/water mixture to the active compound concentration indicated below. Alternatively to this, the active compounds were used as a commercially available ready-to-use solution and diluted with water to the active compound concentration indicated.
Leaves of soybean seedlings grown in pots were inoculated with a spore suspension of soybean rust (Phakpsora pachyrhizi). The pots were then placed in a chamber of high atmospheric humidity (90 to 95%) and 23 to 27° C. for 24 hours. During this time, the spores germinated and the germ tubes penetrated into the leaf tissue. The infected plants were then cultivated further in a greenhouse at temperatures between 23 and 27° C. and 60 to 80% relative atmospheric humidity. After two days, the plants were sprayed to runoff point with the active compound solution described above at the active compound concentration indicated below. After the spray coating had dried on, the test plants were cultivated in a greenhouse at temperatures between 23 and 27° C. and 60 to 80% relative atmospheric humidity for a further 10 days. The extent of the rust fungus development on the leaves was then determined visually in % infection.
Take `CC(C)(C)C(O)C(CCCCOc1c(F)cccc1Cl)n1ncnc1S` (stereo not drawn) [I.A5, 8-(2-Chloro-6-fluorophenoxy)-4-(5-mercapto-[1,2,4]triazol-1-yl)-2,2-dimethyloctan-3-ol]: the “extent of the rust fungus development on the leaves, determined visually in % infection” value (shortened to “extent … in % infection”) was determined as 15%.

Consider `CC(C)(C)C(O)C(CCCCOc1cc(F)ccc1F)n1ncnc1S` (stereo not drawn) [I.A4, 8-(2,5-difluorophenoxy)-4-(5-mercapto-[1,2,4]triazol-1-yl)-2,2-dimethyloctan-3-ol], for which the “extent … in % infection” value is reported as 15%.

Take `CC(C)(C)C(O)C(CCCCOc1ccccc1F)n1ncnc1S` (stereo not drawn) [I.A1, 8-(2-fluorophenoxy)-4-(5-mercapto-[1,2,4]triazol-1-yl)-2,2-dimethyloctan-3-ol]: the “extent … in % infection” value stood at 15%.
